Measurements from patent US9850225B2, “Compounds useful as immunomodulators” (BRISTOL-MYERS SQUIBB COMPANY, priority 2014, dated 2017).
pIC50: −log10 of the molar value. Counter-ions that a name gives are not always drawn.

What follows are molecules tested against PD-1/PD-L1 interaction (PD-1-Ig / PD-L1-His) (Homo sapiens (Human), UniProt Q9NZQ7) (assay: PD-1/PD-L1 Homogenous Time-Resolved Fluorescence (HTRF) binding assay). Settings: PD-1/PD-L1 HTRF binding assay; numeric value; read-out: Range or IC50.
Chain of PD-1/PD-L1 interaction (PD-1-Ig / PD-L1-His) (Q9NZQ7 other isoform, or with tags, fused parts or gaps): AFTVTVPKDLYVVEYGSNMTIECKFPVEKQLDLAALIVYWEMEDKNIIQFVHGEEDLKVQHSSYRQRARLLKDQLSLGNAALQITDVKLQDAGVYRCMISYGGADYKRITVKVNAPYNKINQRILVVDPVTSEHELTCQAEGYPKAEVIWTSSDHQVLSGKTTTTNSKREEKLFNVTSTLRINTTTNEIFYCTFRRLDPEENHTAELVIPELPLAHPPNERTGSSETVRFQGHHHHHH
Procedure, shortened: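 Human PD-L1-His (10 nM final) was pre-incubated with inhibitor for 15 min, then PD-1-Ig (20 nM final) was added for a further 15 min in dPBS with 0.1% BSA and 0.05% Tween-20. Binding was detected by HTRF using Eu-cryptate anti-Ig (1 nM) and APC anti-His (20 nM).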

pIC50 | Structure (SMILES)
6.83 | Cc1c(COc2ccc(CN[C@](C)(CO)C(=O)O)c(OCc3cccc(C#N)c3)c2Cl)cccc1-c1ccc2c(c1)OCCO2 [Example 1239, (R)-2-((3-chloro-2-((3-cyanobenzyl)oxy)-4-((3-(2,3-dihydrobenzo[b][1,4]dioxin-6-yl)-2-methylbenzyl)oxy)benzyl)amino)-3-hydroxy-2-methylpropanoic acid]
8.92 | Cc1c(COc2cc(OCc3cncc(C#N)c3)c(CNC[C@@H](O)CC(=O)O)cc2Cl)cccc1-c1ccc2c(c1)OCCO2 [Example 1250, (S)-4-((5-chloro-2-((5-cyanopyridin-3-yl)methoxy)-4-((3-(2,3-dihydrobenzo[b][1,4]dioxin-6-yl)-2-methylbenzyl)oxy)benzyl)amino)-3-hydroxybutanoic acid]

Same assay, conditions: PD-1/PD-L1 HTRF binding assay; value given as range class; read-out: Range or IC50

Structure (SMILES) | pIC50
Cc1c(COc2cc(OCc3cccc(C#N)c3)c(CN[C@@H](Cn3ncnn3)C(=O)O)cc2Cl)cccc1-c1ccc2c(c1)OCCO2 [Example 1227, (S)-2-((5-chloro-2-((3-cyanobenzyl)oxy)-4-((3-(2,3-dihydrobenzo[b][1,4]dioxin-6-yl)-2-methylbenzyl)oxy)benzyl)amino)-3-(2H-tetrazol-2-yl)propanoic acid] | 4.70 to 7.00
Cc1c(COc2cc(OCc3cccc(C#N)c3)c(CNCc3nnn[nH]3)cc2Cl)cccc1-c1ccc2c(c1)OCCO2 [Example 1229, 3-((2-((((1H-tetrazol-5-yl)methyl)amino)methyl)-4-chloro-5-((3-(2,3-dihydrobenzo[b][1,4]dioxin-6-yl)-2-methylbenzyl)oxy)phenoxy)methyl)benzonitrile] | 8.00 to 9.22
Cc1c(COc2cc(OCc3cccc(C#N)c3)c(CN3CCCC[C@H]3C(=O)O)cc2Cl)cccc1-c1ccc2c(c1)OCCO2 [Example 1230, (S)-1-(5-chloro-2-((3-cyanobenzyl)oxy)-4-((3-(2,3-dihydrobenzo[b][1,4]dioxin-6-yl)-2-methylbenzyl)oxy)benzyl)piperidine-2-carboxylic acid] | 8.00 to 9.22
Cc1c(COc2ccc(CNC[C@@H](O)CC(=O)O)c(OCc3cccc(C#N)c3)c2Cl)cccc1-c1ccccc1 [Example 1232, (S)-4-((3-chloro-2-((3-cyanobenzyl)oxy)-4-((2-methyl-[1,1′-biphenyl]-3-yl)methoxy)benzyl)amino)-3-hydroxybutanoic acid] | 4.70 to 7.00
Cc1c(COc2ccc(CN3CCCC[C@H]3C(=O)O)c(OCc3cccc(C#N)c3)c2Cl)cccc1-c1ccc2c(c1)OCCO2 [Example 1236, (S)-1-(3-chloro-2-(3-cyanobenzyloxy)-4-(3-(2,3-dihydrobenzo[b][1,4]dioxin-6-yl)-2-methylbenzyloxy)benzyl)piperidine-2-carboxylic acid] | 4.70 to 7.00
CC(=O)NCCNCc1ccc(OCc2cccc(-c3ccc4c(c3)OCCO4)c2C)c(Cl)c1OCc1cccc(C#N)c1 [Example 1237, N-(2-((3-chloro-2-((3-cyanobenzyl)oxy)-4-((3-(2,3-dihydrobenzo[b][1,4]dioxin-6-yl)-2-methylbenzyl)oxy)benzyl)amino)ethyl)acetamide] | 4.70 to 7.00
Cc1c(COc2ccc(CN[C@@](C)(CO)C(=O)O)c(OCc3cccc(C#N)c3)c2Cl)cccc1-c1ccc2c(c1)OCCO2 [Example 1238, (S)-2-((3-chloro-2-((3-cyanobenzyl)oxy)-4-((3-(2,3-dihydrobenzo[b][1,4]dioxin-6-yl)-2-methylbenzyl)oxy)benzyl)amino)-3-hydroxy-2-methylpropanoic acid] | 4.70 to 7.00
Cc1c(COc2cc(OCc3cccc(C#N)c3)c(CNC3(C(=O)O)COC3)cc2Cl)cccc1-c1ccc2c(c1)OCCO2 [Example 1243, 3-((5-chloro-2-((3-cyanobenzyl)oxy)-4-((3-(2,3-dihydrobenzo[b][1,4]dioxin-6-yl)-2-methylbenzyl)oxy)benzyl)amino)oxetane-3-carboxylic acid] | 7.00 to 8.00
Cc1c(COc2cc(OCc3cccc(C#N)c3)c(CNC[C@@H](O)CC(=O)O)cc2Cl)cccc1-c1ccc2c(c1)OCCO2 [Example 1246, (S)-4-((5-chloro-2-((3-cyanobenzyl)oxy)-4-((3-(2,3-dihydrobenzo[b][1,4]dioxin-6-yl)-2-methylbenzyl)oxy)benzyl)amino)-3-hydroxybutanoic acid] | 8.00 to 9.22
Cc1c(COc2cc(OCc3cncc(C#N)c3)c(CN[C@](C)(CO)C(=O)O)cc2Cl)cccc1-c1ccc2c(c1)OCCO2 [Example 1248, (R)-2-((5-chloro-2-((5-cyanopyridin-3-yl)methoxy)-4-((3-(2,3-dihydrobenzo[b][1,4]dioxin-6-yl)-2-methylbenzyl)oxy)benzyl)amino)-3-hydroxy-2-methylpropanoic acid] | 8.00 to 9.22
Cc1c(COc2cc(OCc3cncc(C#N)c3)c(CN[C@H](CO)C(=O)O)cc2Cl)cccc1-c1ccc2c(c1)OCCO2 [Example 1249, (R)-2-((5-chloro-2-((5-cyanopyridin-3-yl)methoxy)-4-((3-(2,3-dihydrobenzo[b][1,4]dioxin-6-yl)-2-methylbenzyl)oxy)benzyl)amino)-3-hydroxypropanoic acid] | 8.00 to 9.22
CC(=O)NCCNCc1cc(Cl)c(OCc2cccc(-c3ccc4c(c3)OCCO4)c2C)cc1OCc1cncc(C#N)c1 [Example 1251, N-(2-((5-chloro-2-((5-cyanopyridin-3-yl)methoxy)-4-((3-(2,3-dihydrobenzo[b][1,4]dioxin-6-yl)-2-methylbenzyl)oxy)benzyl)amino)ethyl)acetamide] | 8.00 to 9.22
Cc1c(COc2cc(OCc3cncc(C#N)c3)c(CN3CCCC[C@H]3C(=O)O)cc2Cl)cccc1-c1ccc2c(c1)OCCO2 [Example 1253, (S)-1-(5-chloro-2-((5-cyanopyridin-3-yl)methoxy)-4-((3-(2,3-dihydrobenzo[b][1,4]dioxin-6-yl)-2-methylbenzyl)oxy)benzyl)piperidine-2-carboxylic acid, TFA salt] | 8.00 to 9.22

Second part, the molecule after the results:

pIC50 | Structure (SMILES)
7.00 to 8.00 | Cc1c(COc2cc(OCc3cccc(C#N)c3)c(CN[C@H](Cc3cn(Cc4ccccc4)cn3)C(=O)O)cc2Cl)cccc1-c1ccc2c(c1)OCCO2 [Example 1228, (R)-3-(1-benzyl-1H-imidazol-4-yl)-2-((5-chloro-2-((3-cyanobenzyl)oxy)-4-((3-(2,3-dihydrobenzo[b][1,4]dioxin-6-yl)-2-methylbenzyl)oxy)benzyl)amino)propanoic acid]
4.70 to 7.00 | Cc1c(COc2ccc(CN[C@H](CO)C(=O)O)c(OCc3cccc(C#N)c3)c2Cl)cccc1-c1ccccc1 [Example 1231, (R)-2-((3-chloro-2-((3-cyanobenzyl)oxy)-4-((2-methyl-[1,1′-biphenyl]-3-yl)methoxy)benzyl)amino)-3-hydroxypropanoic acid]
4.70 to 7.00 | Cc1c(COc2ccc(CN3CCCC[C@H]3C(=O)O)c(OCc3cccc(C#N)c3)c2Cl)cccc1-c1ccccc1 [Example 1233, (S)-1-(3-chloro-2-(3-cyanobenzyloxy)-4-((2-methylbiphenyl-3-yl)methoxy)benzyl)piperidine-2-carboxylic acid]
4.70 to 7.00 | CC(=O)NCCNCc1ccc(OCc2cccc(-c3ccccc3)c2C)c(Cl)c1OCc1cccc(C#N)c1 [Example 1234, N-(2-(3-chloro-2-(3-cyanobenzyloxy)-4-((2-methylbiphenyl-3-yl)methoxy)benzylamino)ethyl)acetamide]
4.70 to 7.00 | Cc1c(COc2ccc(CN[C@H](CO)C(=O)O)c(OCc3cccc(C#N)c3)c2Cl)cccc1-c1ccc2c(c1)OCCO2 [Example 1235, (R)-2-((3-chloro-2-((3-cyanobenzyl)oxy)-4-((3-(2,3-dihydrobenzo[b][1,4]dioxin-6-yl)-2-methylbenzyl)oxy)benzyl)amino)-3-hydroxypropanoic acid]
4.70 to 7.00 | Cc1c(COc2ccc(CNC[C@@H](O)CC(=O)O)c(OCc3cccc(C#N)c3)c2Cl)cccc1-c1ccc2c(c1)OCCO2 [Example 1240, (S)-4-((3-chloro-2-((3-cyanobenzyl)oxy)-4-((3-(2,3-dihydrobenzo[b][1,4]dioxin-6-yl)-2-methylbenzyl)oxy)benzyl)amino)-3-hydroxybutanoic acid]
8.00 to 9.22 | C[C@](CO)(NCc1cc(Cl)c(OCc2cccc(-c3ccc4c(c3)OCCO4)c2C#N)cc1OCc1cccc(C#N)c1)C(=O)O [Example 1241, (R)-2-((5-chloro-4-((2-cyano-3-(2,3-dihydrobenzo[b][1,4]dioxin-6-yl)benzyl)oxy)-2-((3-cyanobenzyl)oxy)benzyl)amino)-3-hydroxy-2-methylpropanoic acid]
8.00 to 9.22 | N#Cc1cccc(COc2cc(OCc3cccc(-c4ccc5c(c4)OCCO5)c3C#N)c(Cl)cc2CN[C@H](CO)C(=O)O)c1 [Example 1242, (R)-2-((5-chloro-4-((2-cyano-3-(2,3-dihydrobenzo[b][1,4]dioxin-6-yl)benzyl)oxy)-2-((3-cyanobenzyl)oxy)benzyl)amino)-3-hydroxypropanoic acid]
8.00 to 9.22 | Cc1c(COc2cc(OCc3cccc(C#N)c3)c(CN[C@@](C)(CO)C(=O)O)cc2Cl)cccc1-c1ccc2c(c1)OCCO2 [Example 1245, (S)-2-((5-chloro-2-((3-cyanobenzyl)oxy)-4-((3-(2,3-dihydrobenzo[b][1,4]dioxin-6-yl)-2-methylbenzyl)oxy)benzyl)amino)-3-hydroxy-2-methylpropanoic acid]
8.00 to 9.22 | CC(=O)NCCNCc1cc(Cl)c(OCc2cccc(-c3ccc4c(c3)OCCO4)c2C)cc1OCc1cccc(C#N)c1 [Example 1247, N-(2-((5-chloro-2-((3-cyanobenzyl)oxy)-4-((3-(2,3-dihydrobenzo[b][1,4]dioxin-6-yl)-2-methylbenzyl)oxy)benzyl)amino)ethyl)acetamide]
8.00 to 9.22 | Cc1c(COc2cc(OCc3cncc(C#N)c3)c(CN[C@@](C)(CO)C(=O)O)cc2Cl)cccc1-c1ccc2c(c1)OCCO2 [Example 1252, (S)-2-(5-chloro-2-((5-cyanopyridin-3-yl)methoxy)-4-(3-(2,3-dihydrobenzo[b][1,4]dioxin-6-yl)-2-methylbenzyloxy)benzylamino)-3-hydroxy-2-methylpropanoic acid]
